Results as given in paper PMC9230548, “Synthesis and Biological Evaluation of Novel Synthetic Indolone Derivatives as Anti-Tumor Agents Targeting p53-MDM2 and p53-MDMX” (Molecules, 2022).
Where two headings read alike, the source gives them in different places.

How the values were obtained:
[1] = target: T1, MDMX (Homo sapiens, UniProt O15151); assay: fluorescence polarization assay, MDMX binding
T1 sequence (O15151 1-490): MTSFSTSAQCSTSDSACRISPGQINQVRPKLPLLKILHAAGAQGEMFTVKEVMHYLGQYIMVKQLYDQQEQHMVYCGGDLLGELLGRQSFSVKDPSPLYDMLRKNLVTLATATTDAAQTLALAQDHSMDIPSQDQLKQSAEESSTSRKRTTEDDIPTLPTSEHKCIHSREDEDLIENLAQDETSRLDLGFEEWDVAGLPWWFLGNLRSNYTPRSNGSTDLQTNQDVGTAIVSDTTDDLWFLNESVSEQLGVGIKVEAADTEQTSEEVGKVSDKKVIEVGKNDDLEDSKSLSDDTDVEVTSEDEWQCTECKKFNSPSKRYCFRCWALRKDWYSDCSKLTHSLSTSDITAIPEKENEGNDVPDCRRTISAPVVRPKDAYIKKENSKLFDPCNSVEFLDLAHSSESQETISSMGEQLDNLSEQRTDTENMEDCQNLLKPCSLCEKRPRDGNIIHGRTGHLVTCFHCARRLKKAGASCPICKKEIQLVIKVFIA
Description: (§3) The MDM2 and MDMX binding evaluation for the target compounds was carried out using the fluorescence polarization assay.
(§4) Dose-dependent MDM2 and MDMX binding evaluations were carried out using the fluorescence polarization assay.
(§5) A total of 30 nM preincubated (30 min) MDM2 (or MDMX) and 10 nM PMDM-F peptide in reaction buffer (100 μL, potassium phosphate, 100 mM; bovine gamma globulin, 100 mg/mL; sodium azide, 0.02%) were added into a 96-well plate containing the tested compounds at pH 7.5.

[2] = system: MCF7 cell line; assay: MTT assay, MCF7; assay type: cell-based; details: average of three determinations
Description: (§1) Compounds were tested at six concentrations (0.001–100 μM).
(§2) The cells were seeded into a 96-well plate and allowed to attach overnight, after which various concentrations of test compounds or DMSO were added to the culture medium and the cells were incubated for 48 h at 37 °C in a 5% CO2 humidified incubator. Then, 20 μL of 0.5% the fresh MTT solution was added to each well. After incubation for another 4 h, the culture medium was removed and 150 μL of DMSO was added to dissolve the formazan crystals. The absorbance at 540 nm was measured using a microplate reader. The results, expressed as IC50 values, were the average of three determinations and were calculated using nonlinear regression analysis.

[3] = target: MDM2 (Homo sapiens, UniProt Q00987); assay: fluorescence polarization assay, MDM2 binding
MDM2, sequence (Q00987 whole entry): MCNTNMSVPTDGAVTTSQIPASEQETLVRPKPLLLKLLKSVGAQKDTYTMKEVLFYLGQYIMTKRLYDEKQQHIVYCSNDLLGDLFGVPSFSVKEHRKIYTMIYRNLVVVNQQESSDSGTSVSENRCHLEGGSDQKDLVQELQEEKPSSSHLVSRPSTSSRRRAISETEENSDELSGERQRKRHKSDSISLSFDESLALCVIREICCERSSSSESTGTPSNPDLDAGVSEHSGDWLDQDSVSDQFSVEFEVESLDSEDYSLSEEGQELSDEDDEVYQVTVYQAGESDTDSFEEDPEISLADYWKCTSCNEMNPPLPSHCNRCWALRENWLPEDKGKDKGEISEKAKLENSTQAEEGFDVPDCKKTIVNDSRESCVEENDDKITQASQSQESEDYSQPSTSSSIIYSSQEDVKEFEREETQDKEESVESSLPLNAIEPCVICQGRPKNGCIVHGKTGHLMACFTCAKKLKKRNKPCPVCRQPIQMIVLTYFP
Description: as §3, §4, §5

[4] = system: A549 cell line; assay: MTT assay, A549; assay type: cell-based; details: average of three determinations
Description: as §1, §2

[5] = system: HCT116 cell line; assay: MTT assay, HCT116; assay type: cell-based; details: average of three determinations
Description: as §1, §2

[6] = system: HCT116 cells with wild type p53; assay: Western blotting of p53, MDM2 and MDMX levels; assay type: cell-based; details: HCT116 cells, 0, 5, 10 and 20 μM, 48 h, Western blot
Description: The dual inhibition of the p53-MDM2 and p53-MDMX interactions is expected to activate p53, increasing its level in the cells with wild-type p53. In addition, p53 activation can also result in an increase in the levels of the MDM2 and MDMX proteins. To verify these predictions, Western blotting was used to assess the effects of compound A13 in the HCT 116 cells. The cells were treated with compound A13 for 48 h. Subsequently, the cells were lysed and protein extracts were analyzed for the levels of p53, MDM2, and MDMX.
The HCT116 cells with wild type p53 were treated with compound A13 (0, 5, 10, and 20 μM) for 48 h. The cells were harvested and lysed with RIPA buffer (Sigma, St. Louis, […], USA) supplemented with a protease inhibitor cocktail (Sigma), followed by centrifugation at 12,000× g for 10 min. The supernatants were heated to 100 °C with loading buffer and the total protein concentrations were determined using a Bio-Rad protein assay. Protein samples were subjected to SDS-PAGE and transferred to a PVDF membrane. The membrane was blocked with 5% non-fat milk, and then incubated with the corresponding primary antibody (MDM2, MDMX, p53, and GAPDH) at 4 °C overnight. After binding with an appropriate secondary antibody conjugated with peroxidase, proteins were visualized using the ECL chemiluminescence system. GAPDH was used as a loading control.

[7] = read-out: Ki (μM) ± SD MDMX, fluorescence polarization, PMDM-F peptide, pH 7.5
[8] = read-out: Ki (μM) ± SD MDM2, fluorescence polarization, PMDM-F peptide, pH 7.5

Ki [1] | IC50 ([2]; Homo sapiens, MCF7, 48 h) | Ki [3] | IC50 ([4]; Homo sapiens, A549, 48 h) | IC50 ([5]; Homo sapiens, HCT-116, 48 h) | melting point | Ki [1, 7] | Ki [3, 8] | IC50 ([2]; 48 h) | IC50 ([4]; 48 h) | IC50 ([5]; 48 h) | Structure (SMILES) | expression of MDM2 [6] | expression of MDMX [6] | level of p53 proteins [6]
17.4 ± 2.78 µM | 25.5 ± 3.61 µM | 0.92 ± 0.11 µM | 18.7 ± 2.49 µM | 10.7 ± 1.47 µM |  |  |  |  |  |  | O=C1/C(=C/c2ccccc2Cl)c2ccccc2N1S(=O)(=O)c1cccc(Cl)c1 [Compound A6, (E)-3-(2-chlorobenzylidene)-1-((3-chlorophenyl)sulfonyl)indolin-2-one] |  |  | 
20.8 ± 2.01 µM | 24.7 ± 2.53 µM | 0.19 ± 0.05 µM | 17.8 ± 2.19 µM | 15.4 ± 4.61 µM | 125.1 to 126.3 °C |  |  |  |  |  | O=C1/C(=C/c2cccc(Cl)c2)c2ccccc2N1S(=O)(=O)c1ccccc1Cl [Compound A12, (E)-3-(3-chlorobenzylidene)-1-((2-chlorophenyl)sulfonyl)indolin-2-one] |  |  | 
7.24 ± 0.78 µM | 11.2 ± 1.95 µM | 0.031 ± 0.007 µM | 12.5 ± 2.01 µM | 6.17 ± 0.93 µM |  |  |  |  |  |  | O=C1/C(=C/c2cccc(Cl)c2)c2ccccc2N1S(=O)(=O)c1cccc(Cl)c1 [Compound A13, (E)-3-(3-chlorobenzylidene)-1-((3-chlorophenyl)sulfonyl)indolin-2-one] | induced in a dose-dependent manner | induced in a dose-dependent manner | dose-dependent increase
 | 20.2 ± 2.86 µM |  | 20.3 ± 2.49 µM | 15.2 ± 3.14 µM | 137.5 to 139.6 °C | 18.2 ± 1.39 µM | 0.082 ± 0.021 µM |  |  |  | O=C1/C(=C/c2cccc(Cl)c2)c2ccccc2N1S(=O)(=O)c1ccc(Cl)cc1 [Compound A14, (E)-3-(3-chlorobenzylidene)-1-((4-chlorophenyl)sulfonyl)indolin-2-one] |  |  | 
 |  |  |  |  |  | 24.4 ± 2.57 µM | 0.34 ± 0.12 µM | 31.1 ± 3.55 µM | 29.1 ± 3.31 µM | 23.8 ± 2.69 µM | O=C1/C(=C/c2cccc(Cl)c2)c2ccccc2N1S(=O)(=O)c1ccccc1Br [Compound A15] |  |  | 
 |  |  |  |  |  | 16.2 ± 1.94 µM | 0.079 ± 0.005 µM | 26.5 ± 3.4 µM | 25.4 ± 3.62 µM | 21.7 ± 2.59 µM | O=C1/C(=C/c2cccc(Cl)c2)c2ccccc2N1S(=O)(=O)c1cccc(Br)c1 [Compound A16] |  |  | 
 |  |  |  |  |  | 43.2 ± 4.95 µM | 0.49 ± 0.15 µM | 37.7 ± 3.65 µM | 34.2 ± 3.39 µM | 25.5 ± 3.26 µM | O=C1/C(=C/c2cccc(Cl)c2)c2ccccc2N1S(=O)(=O)c1ccc(Br)cc1 [Compound A17] |  |  | 
17.7 ± 2.16 µM | 24.7 ± 3.63 µM | 0.17 ± 0.03 µM | 22.6 ± 2.93 µM | 17.9 ± 2.11 µM |  |  |  |  |  |  | O=C1/C(=C/c2cccc(Cl)c2)c2ccccc2N1S(=O)(=O)c1ccccc1F [Compound A18, (E)-3-(3-chlorobenzylidene)-1-((2-fluorophenyl)sulfonyl)indolin-2-one] |  |  | 
16.9 ± 1.74 µM | 21 ± 2.58 µM | 0.076 ± 0.005 µM | 16.3 ± 1.82 µM | 10.2 ± 1.37 µM |  |  |  |  |  |  | O=C1/C(=C/c2cccc(Cl)c2)c2ccccc2N1S(=O)(=O)c1cccc(F)c1 [Compound A19, (E)-3-(3-chlorobenzylidene)-1-((3-fluorophenyl)sulfonyl)indolin-2-one] |  |  | 
29.2 ± 3.51 µM | 27.2 ± 2.83 µM | 0.23 ± 0.02 µM | 22.2 ± 2.13 µM | 16.3 ± 2.73 µM | 141.7 to 143.1 °C |  |  |  |  |  | O=C1/C(=C/c2cccc(Cl)c2)c2ccccc2N1S(=O)(=O)c1ccc(F)cc1 [Compound A20, (E)-3-(3-chlorobenzylidene)-1-((4-fluorophenyl)sulfonyl)indolin-2-one] |  |  | 
19.3 ± 2.69 µM | 15.7 ± 2.04 µM | 0.092 ± 0.007 µM | 13.5 ± 2.73 µM | 8.91 ± 1.35 µM |  |  |  |  |  |  | O=C1/C(=C/c2cccc(Cl)c2)c2ccccc2N1S(=O)(=O)c1cccc(C(F)(F)F)c1 [Compound A21, (E)-3-(3-chlorobenzylidene)-1-((3-(trifluoromethyl)phenyl)sulfonyl)indolin-2-one] |  |  | 
 | 27.6 ± 3.81 µM |  | 20.4 ± 1.98 µM | 17.5 ± 1.53 µM | 184.8 to 185.6 °C | 17.3 ± 1.91 µM | 0.31 ± 0.03 µM |  |  |  | O=C1/C(=C/c2ccc(Cl)cc2)c2ccccc2N1S(=O)(=O)c1cccc(Cl)c1 [Compound A27, (E)-3-(4-chlorobenzylidene)-1-((3-chlorophenyl)sulfonyl)indolin-2-one] |  |  | 
 | 27.4 ± 3.37 µM |  | 26.4 ± 4.05 µM | 17 ± 2.37 µM | 177.8 to 178.7 °C | 32.2 ± 3.24 µM | 0.28 ± 0.04 µM |  |  |  | O=C1/C(=C/c2cccc(Cl)c2)c2cc(Cl)ccc2N1S(=O)(=O)c1cccc(Cl)c1 [Compound A29, (E)-5-chloro-3-(3-chlorobenzylidene)-1-((3-chlorophenyl)sulfonyl)indolin-2-one] |  |  | 
> 50 µM |  | 12.5 ± 1.04 µM |  |  | 141.3 to 142.3 °C |  |  |  |  |  | O=C1/C(=C/c2ccc(Cl)cc2)c2ccccc2N1C(=O)c1cccc(Cl)c1 [Compound B10, (E)-1-(3-chlorobenzoyl)-3-(4-chlorobenzylidene)indolin-2-one] |  |  | 

Structure (SMILES) | Ki [1] | IC50 ([2]; Homo sapiens, MCF7, 48 h) | Ki [3] | IC50 ([4]; Homo sapiens, A549, 48 h) | IC50 ([5]; Homo sapiens, HCT-116, 48 h) | melting point | Ki [1, 7] | Ki [3, 8] | IC50 ([2]; 48 h) | IC50 ([4]; 48 h) | IC50 ([5]; 48 h) | expression of MDM2 [6] | expression of MDMX [6] | level of p53 proteins [6]
COc1ccc(C2=N[C@@H](c3ccc(Cl)cc3)[C@@H](c3ccc(Cl)cc3)N2C(=O)N2CCNC(=O)C2)c(OC(C)C)c1 [Nutlin-3a, reference compound] |  |  |  |  |  |  |  |  | 32.2 ± 1.49 µM | 21.7 ± 2.04 µM | 18.1 ± 2.17 µM |  |  | 
